Assay results: patent US10966951B2, “Compositions and methods for lowering triglycerides in a subject having reduced kidney function” (Amarin Pharmaceuticals Ireland Limited, priority 2017, dated 2021)

Tests used:
Format in all cases: in vivo, human
[1] = system: patients with reduced kidney function (eGFR<90 mL/min/1.73 m^2) and diabetes mellitus; assay: Post-hoc ANCHOR analysis, reduced kidney function and diabetes mellitus (Example 5); details: 4 g/day
Procedure: (§1) CVD-related (e.g., atherogenic) parameters were analyzed in a post-hoc study of 198 patients from the multi-center, placebo-controlled, randomized double-blind, 12-week study described in Example 1. These 198 patients have reduced kidney function (e.g., eGFR<90 mL/min/1.73 m^2 for ≥3 months) and diabetes mellitus.
98 patients were randomized to E-EPA and 100 patients were randomized to placebo. In total, atherogenic parameters were analyzed in all 198 patients, 56% of which were male and 97% of which were white. The mean age of the 198 patients was 63 years old.
(§2) The primary objective of this post-hoc study was to determine if and how 4 g of daily of >96% E-EPA, compared to placebo, affects patients with reduced kidney function, diabetes mellitus, and high triglyceride levels. The secondary objective was to determine if and how 4 g daily >96% E-EPA, compared to placebo, affected CVD-related parameters in patients having a high risk for CVD and fasting TG levels 200 mg/dL and <500 mg/dL, despite treatment to LDL-C goal on statin therapy. These CVD-parameters include lipid levels, lipoprotein levels, and inflammatory markers, such as TC, LDL-C, HDL-C, vLDL-C, vLDL-TG, RLP-C, non-HDL-C, Apo B, Apo C-III, Lp-PLA, hsCRP, and ox-LDL, and in plasma and RBC EPA concentration. CVD-parameters were analyzed for median difference in percent change from baseline to week 12 in subjects receiving 4 g/day of E-EPA and those receiving the placebo.
(§3) The median difference in lipid/lipoprotein, apolipoprotein, and inflammatory parameters were determined from baseline to week 12 for 4/g day of E-EPA compared to placebo.

[2] = system: patients with reduced kidney function (eGFR<90 mL/min/1.73 m^2) and hsCRP≥2.0 mg/L; assay: Post-hoc ANCHOR analysis, reduced kidney function and hsCRP≥2.0 mg/L (Example 6); details: 4 g/day
Procedure: as §1, with “152” for “198”, “hsCRP≥2.0 mg/L.” for “diabetes mellitus.”
72 patients were randomized to E-EPA and 80 patients were randomized to placebo. In total, atherogenic parameters were analyzed in all 152 patients, 54% of which were male and 99% of which were white. The mean age of the 152 patients was 64 years old.
as §2, with “this post-hoc study, was to” for “this post-hoc study was to”, “kidney function, elevated hsCRP (e.g, hsCRP≥2.0 mg/L), and high” for “kidney function, diabetes mellitus, and high”, “g daily of >96% E-EPA,” for “g daily >96% E-EPA,”, “in patients with a high” for “in patients having a high”
as §3

[3] = system: patients with chronic kidney disease (eGFR<60 mL/min/1.73 m^2); assay: Renal parameters and safety in ANCHOR patients with CKD (Example 7)
Procedure: CVD-related (e.g., atherogenic) parameters were analyzed in a post-hoc study of 55 patients from the multi-center, placebo-controlled, randomized double-blind, 12-week study described in Example 1. These 55 patients have chronic kidney disease (e.g., eGFR<60 mL/min/1.73 m^2 for ≥3 months). There was no lower limit of eGFR specified.
19 patients were randomized to E-EPA and 36 patients were randomized to placebo. One patient in each group discontinued and was excluded from efficacy analyses (but not safety analyses). EPA levels in plasma and RBC were measured in 23 of the 55 patients. These measurements were taken on 7 of the patients randomized to E-EPA and on 16 of the patients that were randomized to the placebo.
The median difference in percent change from baseline between 4 g/day of E-EPA and placebo for the primary efficacy variable and additional assessments were estimated using the Hodges-Lehmann method (P values from the Wilcoxon rank-sum test for treatment comparisons). Using the Hodges-Lehmann method, departures from normal distribution were observed; for normally distributed parameters, an analysis of covariance model was used with least squares (LS) means and standard errors (SE). Missing values were imputed using the last-observation-carried-forward method. For all post hoc analyses, the alpha for statistical significance was 0.05.

**Q.** `CC/C=C\C/C=C\C/C=C\C/C=C\C/C=C\CCCC(=O)OCC` [E-EPA, ethyl eicosapentaenoate] was tested. Which “albumin after 12 weeks” value ([1]; after 12 weeks) did it give?
**A.** 4.5 g/dL

**Q.** What about the “serum creatinine after 12 weeks” value ([1]; after 12 weeks) of the same compound?
**A.** 0.9 mg/dL

**Q.** And the albumin before treatment ([1]; before the 12 weeks)?
**A.** 4.5 g/dL

**Q.** And the eGFR before treatment ([1]; before the 12 weeks)?
**A.** 75.4 mL/min/1.73 m^2

**Q.** What about the “serum creatinine before treatment” value ([1]; before the 12 weeks) of the same compound?
**A.** 0.9 mg/dL

**Q.** What about the “albumin after 12 weeks” value ([2]; after 12 weeks) of the same compound?
**A.** 4.4 g/dL

**Q.** What about the “serum creatinine after 12 weeks” value ([2]; after 12 weeks) of the same compound?
**A.** 0.9 mg/dL

**Q.** And the albumin before treatment ([2]; before the 12 weeks)?
**A.** 4.5 g/dL

**Q.** And the eGFR before treatment ([2]; before the 12 weeks)?
**A.** 72.4 mL/min/1.73 m^2

**Q.** And the “serum creatinine before treatment” value ([2]; before the 12 weeks)?
**A.** 0.9 mg/dL

**Q.** And the “nausea, nasopharyngitis, and arthralgia” value ([3]; 4 g/day)?
**A.** not reported by any patients

**Q.** What about the “eGFR median difference in change from baseline compared with placebo” value ([3]; 4 g/day vs placebo, P=0.1983) of the same compound?
**A.** −7.8%

**Q.** And the “serum creatinine median difference in change from baseline compared with placebo” value ([3]; 4 g/day vs placebo, P=0.1983)?
**A.** 6.5%

**Q.** And the “BUN median difference in change from baseline compared with placebo” value ([3]; 4 g/day vs placebo, P=0.5291)?
**A.** 5.5%

**Q.** What about the “BUN median difference in change from baseline compared with placebo” value ([3]; 4 g/day vs placebo, P=0.5471) of the same compound?
**A.** 1.0 mg/dL

**Q.** And the patients reporting diarrhea ([3]; 4 g/day, 2 patients)?
**A.** 10.5%

**Q.** And the “patients reporting TEAE” value ([3]; 4 g/day, 11 of 19 patients)?
**A.** 57.9%

**Q.** What about the “serum albumin change from baseline” value ([3]; 4 g/day, 12-week study) of the same compound?
**A.** no significant median changes from baseline

**Q.** What about the “BUN, median (IQR), baseline” value ([3]; 4 g/day, baseline) of the same compound?
**A.** 24.5 (12.0) mg/dL

**Q.** What about the “eGFR, median (IQR), baseline” value ([3]; 4 g/day, baseline) of the same compound?
**A.** 55.0 (13.8) mL/min/1.73 m^2

**Q.** What about the “serum creatinine, median (IQR), baseline” value ([3]; 4 g/day, baseline) of the same compound?
**A.** 1.2 (0.3) mg/dL

**Q.** What about the “changes in serum creatinine, blood urea nitrogen (BUN), or eGFR from baseline to week 12” value ([3]; 4 g/day, compared to placebo control) of the same compound?
**A.** did not produce significant changes

**Q.** What about the “BUN, median (IQR), week 12” value ([3]; 4 g/day, week 12) of the same compound?
**A.** 22.5 (11.0) mg/dL

**Q.** And the “eGFR, median (IQR), week 12” value ([3]; 4 g/day, week 12)?
**A.** 56.0 (12.9) mL/min/1.73 m^2

**Q.** And the “serum creatinine, median (IQR), week 12” value ([3]; 4 g/day, week 12)?
**A.** 1.2 (0.4) mg/dL
